Measured values reported in ChEMBL document CHEMBL4840344, “Discovery of 1,8-naphthalidine derivatives as potent anti-hepatic fibrosis agents via repressing PI3K/AKT/Smad and JAK2/STAT3 pathways” (Bioorg Med Chem, 2021).
Activity calls are given as the source filed them. No cut-off for these calls is given here.

Columns and labels:
[1] = system: COL1A1 promoter; test: Inhibition of COL1A1 promotor activity in human LX2 cells at 50 uM incubated for 24 hrs by luciferase reporter gene assay; type: cell-based
[2] = Anti-fibrogenic activity in human LX2 cells assessed as inhibition of TGFbeta1-induced COL1A1 mRNA expression at 10 uM incubated for 24 hrs by RT-PCR analysis; type: functional; settings: LX-2
[3] = system: COL1A1 promoter; test: Inhibition of COL1A1 promotor activity in human LX2 cells at 20 uM incubated for 24 hrs by luciferase reporter gene assay; type: cell-based
[4] = Cytotoxicity against human LX2 cells assessed as cell death incubated for 24 hrs by MTT assay; type: cell-based, LX-2
[5] = system: LX-2; test: Anti-fibrogenic activity in human LX2 cells assessed as inhibition of TGFbeta1-induced TGFbeta1 protein level at 3 to 10 uM incubated for 24 hrs by Western blot analysis; type: functional, cell-based; settings: dose 3-10 µM
[6] = system: LX-2; test: Down regulation of PI3K expression in TGF-beta1 induced human LX2 cells after 24 hrs by Western blot analysis; type: functional, cell-based
[7] = Anti-fibrogenic activity in human LX2 cells assessed as inhibition of TGFbeta1-induced ACTA2 mRNA expression at 10 uM incubated for 24 hrs by RT-PCR analysis; type: functional; settings: LX-2
[8] = Anti-fibrogenic activity in human LX2 cells assessed as inhibition of TGFbeta1-induced ACTA2 mRNA expression at 3 uM incubated for 24 hrs by RT-PCR analysis; type: functional; settings: LX-2
[9] = molecular target: Tyrosine-protein kinase JAK2 (Homo sapiens) (UniProt O60674); test: Inhibition of JAK2 phosphorylation in TGF-beta1 induced human LX2 cells at 3 to 10 uM incubated for 24 hrs by Western blot analysis; type: cell-based; settings: dose 3-10 µM
[10] = system: LX2; test: Inhibition of PI3K/Akt pathway in human LX2 cells assessed as inhibition of TGF-beta1 induced AKT phosphorylation at 3 to 10 uM incubated for 24 hrs by Western blot analysis; type: cell-based; settings: dose 3-10 µM
[11] = system: LX-2; test: Down regulation of JAK3 expression in TGF-beta1 induced human LX2 cells at 3 to 10 uM after 24 hrs by Western blot analysis; type: functional, cell-based; settings: dose 3-10 µM
[12] = Anti-fibrogenic activity in human LX2 cells assessed as inhibition of TGFbeta1-induced TGFbeta1 mRNA expression at 3 uM incubated for 24 hrs by RT-PCR analysis; type: functional; settings: LX-2
[13] = system: LX-2; test: Down regulation of STAT3 expression in TGF-beta1 induced human LX2 cells at 3 to 10 uM after 24 hrs by Western blot analysis; type: functional, cell-based; settings: dose 3-10 µM
[14] = system: LX-2; test: Anti-fibrogenic activity in human LX2 cells assessed as inhibition of TGFbeta1-induced COL1A1 protein level at 3 to 10 uM incubated for 24 hrs by Western blot analysis; type: functional, cell-based; settings: dose 3-10 µM
[15] = Anti-fibrogenic activity in human LX2 cells assessed as inhibition of TGFbeta1-induced MMP2 mRNA expression at 10 uM incubated for 24 hrs by RT-PCR analysis; type: functional; settings: LX-2
[16] = Anti-fibrogenic activity in human LX2 cells assessed as inhibition of TGFbeta1-induced CTGF mRNA expression at 3 uM incubated for 24 hrs by RT-PCR analysis; type: functional; settings: LX-2
[17] = Anti-fibrogenic activity in human LX2 cells assessed as inhibition of TGFbeta1-induced TGFbeta1 mRNA expression at 10 uM incubated for 24 hrs by RT-PCR analysis; type: functional; settings: LX-2
[18] = Anti-fibrogenic activity in human LX2 cells assessed as inhibition of TGFbeta1-induced CTGF mRNA expression at 10 uM incubated for 24 hrs by RT-PCR analysis; type: functional; settings: LX-2
[19] = Anti-fibrogenic activity in human LX2 cells assessed as inhibition of TGFbeta1-induced MMP2 mRNA expression at 3 uM incubated for 24 hrs by RT-PCR analysis; type: functional; settings: LX-2
[20] = molecular target: Mothers against decapentaplegic homolog 2/homolog 3 (Homo sapiens) (UniProt P84022+Q15796); test: Inhibition of TGF-beta1 induced SMAD2/3 phosphorylation in human LX2 cells at 3 to 10 uM incubated for 24 hrs by Western blot analysis; type: cell-based; settings: dose 3-10 µM
[21] = system: LX-2; test: Anti-fibrogenic activity in human LX2 cells assessed as inhibition of TGFbeta1-induced CTGF protein level at 3 to 10 uM incubated for 24 hrs by Western blot analysis; type: functional, cell-based; settings: dose 3-10 µM
[22] = system: LX-2; test: Anti-fibrogenic activity in human LX2 cells assessed as inhibition of TGFbeta1-induced MMP2 protein level at 3 to 10 uM incubated for 24 hrs by Western blot analysis; type: functional, cell-based; settings: dose 3-10 µM
[23] = molecular target: Mothers against decapentaplegic homolog 3 (Homo sapiens) (UniProt P84022); test: Inhibition of TGF-beta1 induced SMAD3 phosphorylation in human LX2 cells by Western blot analysis; type: cell-based
[24] = system: Rattus norvegicus; test: Antifibrotic activity in Sprague-Dawley rat liver assessed as reduction in TGF-beta1-induced TGF-beta1 protein expression at 200 mg/kg oral gavage for 14 days by Western blot analysis; type: functional, organism-based; settings: time 14.0 day
[25] = system: Rattus norvegicus; test: Anti-fibrotic activity in Sprague-Dawley rat model of BDL-induced […] fibrosis assessed as reduction in hepatic collagen accumulation in hepatic parenchyma at 200 mg/kg oral gavage for 14 days by Sirius red staining-based analysis; type: functional, organism-based; settings: time 14.0 day
[26] = system: Rattus norvegicus; test: Anti-fibrotic activity in Sprague-Dawley rat model of BDL-induced […] fibrosis assessed as reduction in hepatic collagen accumulation in portal areas at 200 mg/kg oral gavage for 14 days by Sirius red staining-based analysis; type: functional, organism-based; settings: time 14.0 day
[27] = system: Rattus norvegicus; test: Antifibrotic activity in Sprague-Dawley rat liver assessed as reduction in TGF-beta1-induced alpha-SMA protein expression at 200 mg/kg oral gavage for 14 days by Western blot analysis; type: functional, organism-based; settings: time 14.0 day
[28] = species: Rattus norvegicus; test: Anti-fibrotic activity in Sprague-Dawley rat model of BDL-induced […] fibrosis assessed as reduction in hepatic injury by hematoxylin and eosin staining based microscopic analysis; type: functional, organism-based
[29] = system: Rattus norvegicus; test: Antifibrotic activity in Sprague-Dawley rat liver assessed as reduction in TGF-beta1-induced MMP2 protein expression at 200 mg/kg oral gavage for 14 days by Western blot analysis; type: functional, organism-based; settings: time 14.0 day
[30] = system: Rattus norvegicus; test: Antifibrotic activity in Sprague-Dawley rat liver assessed as reduction in TGF-beta1-induced COL1A1 protein expression at 200 mg/kg oral gavage for 14 days by Western blot analysis; type: functional, organism-based; settings: time 14.0 day

Sequence of Tyrosine-protein kinase JAK2 (Homo sapiens) (O60674 whole entry): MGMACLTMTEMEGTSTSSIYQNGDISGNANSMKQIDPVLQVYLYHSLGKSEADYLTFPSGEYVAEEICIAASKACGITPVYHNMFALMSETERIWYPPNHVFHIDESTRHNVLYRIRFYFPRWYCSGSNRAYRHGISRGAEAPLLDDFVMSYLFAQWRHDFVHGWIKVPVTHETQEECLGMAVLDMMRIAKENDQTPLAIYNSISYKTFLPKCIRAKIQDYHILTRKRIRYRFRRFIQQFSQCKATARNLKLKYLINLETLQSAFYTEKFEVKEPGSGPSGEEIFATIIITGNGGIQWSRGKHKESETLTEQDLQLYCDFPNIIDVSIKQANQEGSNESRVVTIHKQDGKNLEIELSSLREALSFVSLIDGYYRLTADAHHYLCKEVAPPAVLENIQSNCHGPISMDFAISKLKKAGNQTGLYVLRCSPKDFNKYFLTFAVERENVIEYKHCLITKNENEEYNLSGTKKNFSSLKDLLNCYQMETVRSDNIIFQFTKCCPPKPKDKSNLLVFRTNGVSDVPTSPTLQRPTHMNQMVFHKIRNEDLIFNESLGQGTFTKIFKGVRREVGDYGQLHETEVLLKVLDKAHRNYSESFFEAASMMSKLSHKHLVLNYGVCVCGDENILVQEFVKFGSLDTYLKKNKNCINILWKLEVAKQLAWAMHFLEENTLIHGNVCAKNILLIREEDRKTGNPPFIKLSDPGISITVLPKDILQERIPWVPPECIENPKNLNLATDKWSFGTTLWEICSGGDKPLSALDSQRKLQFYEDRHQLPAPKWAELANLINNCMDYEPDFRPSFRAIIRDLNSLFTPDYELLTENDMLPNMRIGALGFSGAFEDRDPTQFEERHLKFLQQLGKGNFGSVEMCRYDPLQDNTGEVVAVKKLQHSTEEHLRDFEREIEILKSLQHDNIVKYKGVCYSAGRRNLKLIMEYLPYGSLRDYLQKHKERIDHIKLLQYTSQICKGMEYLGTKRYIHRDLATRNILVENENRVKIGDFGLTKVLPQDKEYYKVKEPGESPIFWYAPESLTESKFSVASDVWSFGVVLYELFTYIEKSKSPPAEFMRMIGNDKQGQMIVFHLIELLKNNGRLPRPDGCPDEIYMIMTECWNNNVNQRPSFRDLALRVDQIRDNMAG
Sequence of Mothers against decapentaplegic homolog 2/homolog 3 (Homo sapiens) (P84022 whole entry, looked up): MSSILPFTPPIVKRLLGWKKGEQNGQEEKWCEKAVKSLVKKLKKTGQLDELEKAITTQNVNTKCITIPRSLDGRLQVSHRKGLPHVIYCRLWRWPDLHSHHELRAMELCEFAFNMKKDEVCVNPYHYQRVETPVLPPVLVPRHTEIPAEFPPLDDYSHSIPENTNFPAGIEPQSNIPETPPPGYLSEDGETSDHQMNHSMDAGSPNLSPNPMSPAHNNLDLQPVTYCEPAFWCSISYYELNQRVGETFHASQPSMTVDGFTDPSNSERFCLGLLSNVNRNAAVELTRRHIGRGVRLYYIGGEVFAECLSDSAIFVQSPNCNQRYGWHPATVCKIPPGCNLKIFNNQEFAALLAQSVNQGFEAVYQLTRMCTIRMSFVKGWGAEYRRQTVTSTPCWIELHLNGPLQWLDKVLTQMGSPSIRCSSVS
Sequence of Mothers against decapentaplegic homolog 2/homolog 3 (Homo sapiens) (Q15796 whole entry, looked up): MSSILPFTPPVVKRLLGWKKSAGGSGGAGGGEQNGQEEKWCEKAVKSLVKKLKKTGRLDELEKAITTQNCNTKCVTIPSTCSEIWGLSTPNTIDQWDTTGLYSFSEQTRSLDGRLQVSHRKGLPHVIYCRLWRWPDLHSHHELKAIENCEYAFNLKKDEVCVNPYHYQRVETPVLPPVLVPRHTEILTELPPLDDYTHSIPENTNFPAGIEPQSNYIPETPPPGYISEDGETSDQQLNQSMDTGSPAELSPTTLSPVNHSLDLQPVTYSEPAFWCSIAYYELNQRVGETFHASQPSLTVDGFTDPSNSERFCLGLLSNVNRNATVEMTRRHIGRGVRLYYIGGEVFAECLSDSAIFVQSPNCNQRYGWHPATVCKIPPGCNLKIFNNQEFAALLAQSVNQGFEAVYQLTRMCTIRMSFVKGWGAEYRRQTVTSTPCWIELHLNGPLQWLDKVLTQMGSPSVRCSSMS
Sequence of Mothers against decapentaplegic homolog 3 (Homo sapiens) (P84022 2-425 limits assumed): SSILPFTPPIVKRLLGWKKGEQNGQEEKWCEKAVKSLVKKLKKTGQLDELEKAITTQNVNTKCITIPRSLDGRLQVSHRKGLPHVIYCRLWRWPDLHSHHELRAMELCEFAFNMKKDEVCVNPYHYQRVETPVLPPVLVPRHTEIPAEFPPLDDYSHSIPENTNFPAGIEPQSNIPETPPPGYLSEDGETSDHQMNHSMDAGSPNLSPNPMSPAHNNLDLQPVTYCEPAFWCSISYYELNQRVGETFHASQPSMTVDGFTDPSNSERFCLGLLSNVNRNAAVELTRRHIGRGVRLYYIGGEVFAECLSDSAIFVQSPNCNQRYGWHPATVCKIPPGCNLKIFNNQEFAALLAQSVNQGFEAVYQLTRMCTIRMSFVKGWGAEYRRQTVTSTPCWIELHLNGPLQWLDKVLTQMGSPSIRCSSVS

For `CC[N+]1(CCCCCCCOc2ccc(-n3cc(C(=O)Nc4cc(F)cc(F)c4)c(=O)c4ccc(N(C)C)nc43)cc2C)CCCC1`, the inhibition [1] was 82.5%, the inhibition at 10 µM [2] was 48.5% and the inhibition [3] was 44.6%. For the same compound, the CC50 at 24 h [4] was over 100 µM.
`CN(C)c1ccc2c(=O)c(C(=O)Nc3cc(F)cc(F)c3)cn(-c3ccc(OCCCCCCC[N+](C)(C)C4CCCCC4)c(Cl)c3)c2n1` gave an inhibition [1] of 86.2%, an inhibition at 10 µM [2] of 30.2% and an inhibition [3] of 34.8%. It also gave a CC50 at 24 h [4] of over 100 µM.
In the case of `CN(C)c1ccc2c(=O)c(C(=O)Nc3cc(F)cc(F)c3)cn(-c3ccc(Cl)c(OCCCCCCC[n+]4ccccc4)c3)c2n1`, the inhibition [1] is reported as 77.8%, the inhibition at 10 µM [2] is reported as 53.6% and the inhibition [3] is reported as “inactive”. The CC50 at 24 h [4] was 105 µM.
For `CC[N+]1(CCCCCCCOc2cc(C)cc(-n3cc(C(=O)Nc4cc(F)cc(F)c4)c(=O)c4ccc(N(C)C)nc43)c2)CCCCC1`, the inhibition [5] was “Active”, the Activity [6] was “Dose-Dependent Effect” and the inhibition at 10 µM [7] was 80.8%. For the same compound, the inhibition at 3 µM [8] was 74.9%, the inhibition [1] was 86.6% and the inhibition [9] was “Active”. For the same compound, the inhibition at 10 µM [2] was 70.8%, the inhibition [10] was “Dose-Dependent Effect” and the Activity [11] was “Dose-Dependent Effect”. The inhibition at 3 µM [12] was 18.9%, the Activity [13] was “Dose-Dependent Effect” and the inhibition [14] was “Active”. For the same compound, the inhibition [3] was 67.2%, the inhibition at 10 µM [15] was 63.7% and the inhibition at 3 µM [16] was 30.8%. It also gave an inhibition at 10 µM [17] of 66%, an inhibition at 10 µM [18] of 68.1% and an inhibition at 3 µM [19] of 40.8%. For the same compound, the inhibition [20] was “Dose-Dependent Effect”, the CC50 at 24 h [4] was 97.6 µM and the inhibition [21] was “Active”. For the same compound, the inhibition [22] was “Active” and the inhibition [23] was “Dose-Dependent Effect”.
For `CC[N+]1(CCCCCCCOc2cc(-n3cc(C(=O)Nc4cc(F)cc(F)c4)c(=O)c4ccc(N(C)C)nc43)ccc2C)CCCC1`, the inhibition [5] was “Active”, the Activity [6] was “Dose-Dependent Effect” and the inhibition at 10 µM [7] was 83.6%. The inhibition at 3 µM [8] was 76.3%, the inhibition [1] was 81.3% and the inhibition [9] was “Active”. The inhibition at 10 µM [2] was 79.7%, the inhibition [10] was “Dose-Dependent Effect” and the Activity [11] was “Dose-Dependent Effect”. For the same compound, the inhibition at 3 µM [12] was 28.9%, the Activity [13] was “Dose-Dependent Effect” and the Activity [24] was “Active”. For the same compound, the inhibition [14] was “Active”, the inhibition [3] was 57% and the inhibition at 10 µM [15] was 52.4%. For the same compound, the inhibition at 3 µM [16] was 32%, the inhibition at 10 µM [17] was 47% and the Activity [25] was “Active”. For the same compound, the inhibition at 10 µM [18] was 67.1%, the Activity [26] was “Active” and the Activity [27] was “Active”. For the same compound, the Activity [28] was “Active”, the Activity [29] was “Active” and the inhibition at 3 µM [19] was 36.8%. For the same compound, the inhibition [20] was “Dose-Dependent Effect”, the Activity [30] was “Active” and the CC50 at 24 h [4] was 95 µM. For the same compound, the inhibition [21] was “Active”, the inhibition [22] was “Active” and the inhibition [23] was “Dose-Dependent Effect”.
`Cc1cc(OCCCCCCC[N+]2(C)CCCCC2)cc(-n2cc(C(=O)Nc3cc(F)cc(F)c3)c(=O)c3ccc(N(C)C)nc32)c1` showed an inhibition [1] of 79.7%, an inhibition at 10 µM [2] of 23.1% and an inhibition [3] of 46.8%. It also gave a CC50 at 24 h [4] of 99.4 µM.
With `Cc1cc(OCCCCCCC[N+]23CCN(CC2)CC3)ccc1-n1cc(C(=O)Nc2cc(F)cc(F)c2)c(=O)c2ccc(N(C)C)nc21` the inhibition [1] was “inactive”, the inhibition [3] was “inactive” and the CC50 at 24 h [4] was under 20 µM.
With `CC[N+]1(CCCCCCCOc2ccc(-n3cc(C(=O)Nc4cc(F)cc(F)c4)c(=O)c4ccc(N(C)C)nc43)c(Cl)c2)CCCCC1` the inhibition [1] was “inactive”, the inhibition [3] was “inactive” and the CC50 at 24 h [4] was under 20 µM.
Work on `CN(C)c1ccc2c(=O)c(C(=O)Nc3cc(F)cc(F)c3)cn(-c3ccc(Cl)c(OCCCCCCC[N+](C)(C)C4CCCCC4)c3)c2n1` yielded an inhibition [1] of 81.4%, an inhibition at 10 µM [2] of 40.2% and an inhibition [3] of 37.6%. For the same compound, the CC50 at 24 h [4] was over 100 µM.
